Tests used:
[1] = NMR-based stability assay in cell culture medium; assay type: physicochemical; conditions: ~8 mM in DMSO-d6 diluted 1:3 with DMEM + 10% FCS; NMR at 37°C for 16 hours; compared with Example Compound 1; Figures 1-3
KLK6 = KLK6 (Homo sapiens, UniProt Q92876); assay: Biochemical inhibition assay, fluorogenic substrate FSR-AMC; conditions: read-out: KLK6 IC50; KLK6 5 nM (produced in insect cells); 30 min incubation with inhibitor; FSR-AMC 20 µM; Tris pH 7.5
Method: (§1) In a 384 well plate, 5 µL of eleven concentrations of inhibitor in 8% DMSO (serial dilution 2:1) and a blank were incubated with an equal amount of enzyme (KLK6, Thrombin, Trypsin or Factor Xa) diluted in 50 mM Tris pH 7.5, 150 mM NaCl, 1 mM EDTA, 0.05% Tween20 assay buffer for 30 minutes. […] Inhibition of the enzyme as a function of the inhibitor concentration was used to generate dose response curves, which allowed estimating IC50 values, according to the following equation in GraphPad Prism: y = ymin + (ymax−ymin)/(1+10^(((LogIC50−x)*HillSlope))) [formula]
(§2) Assay final concentrations: • KLK6: 5 nM • Trypsin: 0.88 ng/mL • Thrombin: 9.8·10^-5 NIH unit/mL • Factor Xa: 4 nM • FSR-AMC: 20 µM

Thrombin = Thrombin (Homo sapiens, UniProt P00734); assay: as above; conditions: read-out: Thrombin IC50; Thrombin 9.8·10^-5 NIH unit/mL; 30 min incubation with inhibitor; FSR-AMC 20 µM; Tris pH 7.5
Method: as §1, §2

Trypsin = Trypsin (Homo sapiens, UniProt P07477); assay: as above; conditions: read-out: Trypsin IC50; Trypsin 0.88 ng/mL; 30 min incubation with inhibitor; FSR-AMC 20 µM; Tris pH 7.5
Method: as §1, §2

Factor Xa = Factor Xa (Homo sapiens, UniProt P00742); assay: as above; conditions: read-out: Factor Xa IC50; Factor Xa 4 nM; 30 min incubation with inhibitor; FSR-AMC 20 µM; Tris pH 7.5
Sequence of Factor Xa (P00742 235-488 limits assumed): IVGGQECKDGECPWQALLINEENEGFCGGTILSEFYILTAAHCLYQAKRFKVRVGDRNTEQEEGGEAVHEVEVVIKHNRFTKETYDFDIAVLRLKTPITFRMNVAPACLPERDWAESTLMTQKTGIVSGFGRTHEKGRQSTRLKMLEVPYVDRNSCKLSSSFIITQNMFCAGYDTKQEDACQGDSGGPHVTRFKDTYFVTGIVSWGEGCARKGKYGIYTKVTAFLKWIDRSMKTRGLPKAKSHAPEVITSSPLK
Sequence of Factor Xa (P00742 41-179 partner limits assumed): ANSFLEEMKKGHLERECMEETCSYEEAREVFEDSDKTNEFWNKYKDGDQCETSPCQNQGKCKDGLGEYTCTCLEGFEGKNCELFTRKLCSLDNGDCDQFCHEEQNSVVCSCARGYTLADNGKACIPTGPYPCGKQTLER
Method: as §1, §2

stability in cell culture medium (ester hydrolysis) [1]	IC50 (KLK6) [µM]	IC50 (Thrombin) [µM]	IC50 (Trypsin) [µM]	IC50 (Factor Xa) [µM]	SMILES
totally enhanced	–	–	–	–	Cc1nn(-c2ccccc2)c(C)c1NC(=O)COC(=O)Cc1c(C)[nH]c2ccccc12 [Example Compound 38, 2-((3,5-dimethyl-1-phenyl-1H-pyrazol-4-yl)amino)-2-oxoethyl 2-(2-methyl-1H-indol-3-yl)acetate]
further stabilizing properties	–	–	–	–	Cc1nn(-c2ccccc2)c(C)c1NC(=O)COC(=O)C(C)c1c(C)[nH]c2ccccc12 (stereo not shown) [Example Compound 81, 2-((3,5-dimethyl-1-phenyl-1H-pyrazol-4-yl)amino)-2-oxoethyl 2-(2-methyl-1H-indol-3-yl)propanoate]
–	32.6	> 200	> 200	> 200	Cc1nn(-c2ccccc2)c(C)c1NC(=O)COC(=O)Cc1ccc(Cl)s1 [compound 60]
–	2.33	> 200	> 200	> 200	Cc1nn(-c2ccccc2)c(C)c1NC(=O)COC(=O)Cc1cc(Cl)sc1Cl [compound 61]
–	2.35	> 200	> 200	> 200	Cc1nn(-c2ccccc2)c(C)c1NC(=O)COC(=O)Cc1ccccc1C(F)(F)F [compound 63]
–	22	> 200	> 200	> 200	Cc1nn(-c2ccccc2)c(C)c1NC(=O)COC(=O)Cc1cccc(F)c1 [compound 64]
–	38.7	> 200	> 200	> 200	C=CCOc1ccccc1NC(=O)COC(=O)Cc1ccccc1I [compound 65]
–	7.4	> 200	> 200	> 200	Cc1nn(-c2ccccc2)c(C)c1NC(=O)COC(=O)Cc1ccsc1Cl [compound 66]
–	166	> 200	> 200	> 200	Cc1[nH]c2ccccc2c1CC(=O)OCC(=O)NC(C)(C)C [compound 67]
–	46	> 200	> 200	> 200	Cc1nn(-c2ccccc2)c(C)c1NC(=O)COC(=O)Cc1ccco1 [compound 68]
–	57.4	> 200	> 200	> 200	Cc1nn(-c2ccccc2)c(C)c1NC(=O)COC(=O)Cc1ccccc1OCc1ccccc1 [compound 69]
–	78.7	> 200	> 200	> 200	Cc1[nH]c2ccccc2c1CC(=O)OCC(=O)NC1CCCC1 [compound 71]
–	12.3	60.3	50.4	65.9	Cc1[nH]c2ccccc2c1CC(=O)OCC(=O)Nc1ccc(F)cn1 [compound 72]
–	1.46	> 200	114	34.7	Cc1[nH]c2ccccc2c1CC(=O)OCC(=O)Nc1ccccc1Cl [compound 73]
–	4.57	> 200	> 200	> 200	Cc1ccc(NC(=O)COC(=O)Cc2c(C)[nH]c3ccccc23)cc1 [compound 74]
–	5.38	> 200	> 200	> 200	Cc1cccc(NC(=O)COC(=O)Cc2c(C)[nH]c3ccccc23)c1 [compound 75]
–	1.86	> 200	28.7	21.1	COc1ccccc1NC(=O)COC(=O)Cc1c(C)[nH]c2ccccc12 [compound 77]
–	4.73	> 200	> 200	> 200	Cc1ccccc1NC(=O)COC(=O)Cc1c(C)[nH]c2ccccc12 [compound 78]
–	6.05	> 200	> 200	> 200	COc1cccc(NC(=O)COC(=O)Cc2c(C)[nH]c3ccccc23)c1 [compound 79]
–	6.55	> 200	> 200	> 200	COc1ccc(NC(=O)COC(=O)Cc2c(C)[nH]c3ccccc23)cc1 [compound 80]
–	27.3	> 200	> 200	> 200	Cc1nn(-c2ccccc2)c(C)c1NC(=O)COC(=O)Cc1ccccc1N=[N+]=[N-] [compound 82]
–	14.3	> 200	> 200	> 200	Cc1nn(-c2ccccc2)c(C)c1NC(=O)COC(=O)C(C)c1c[nH]c2ccccc12 (stereo not shown) [compound 83]
–	3.27	90.6	82.1	67.5	Cc1[nH]c2ccccc2c1CC(=O)OCC(=O)Nc1cccc(C(N)=O)c1 [compound 84]
–	172	> 200	> 200	157	Cc1[nH]c2ccccc2c1CC(=O)OCC(=O)NCc1ncc[nH]1 [compound 85]
–	2.88	14.1	9.1	18.1	Cc1nn(-c2ccccc2)c(C)c1N(C)C(=O)COC(=O)Cc1c(C)[nH]c2ccccc12 [compound 88]

From EP3305781A1, “CHEMICAL SUBSTANCES WHICH INHIBIT THE ENZYMATIC ACTIVITY OF HUMAN KALLIKREIN-RELATED PEPTIDASE 6 (KLK6)” (Deutsches Krebsforschungszentrum, priority 2016, dated 2018)
